One data set has as its system stomach. The data set is described as follows: Gastrointestinal side effect measurement (gastric ulcers and erosions, relative to indomethacin). The format is in vivo, Female rats from Wistar type. As to conditions: for Gastric lesion ((Index of ulcers in drug tests / Index of ulcers in indomethacin tests) x 100): relative to indomethacin 20 mg/kg = 100, same doses and schedule as ulcer column. On the procedure:
Female rats from Wistar type (150-180 g body weight) were subject to fasting 24 hours before experimentation. […] 2.5 hours later, all the groups received a second administration of the same doses. Stomachs were examined at 5 hours after first treatment in the following way: animals were sacrificed and stomach was separated which was opened along its lower curvature, gently rinsing with formol (2%) and examined. Severity of induced gastric lesions with medicament was calculated as a ratio of number of lesions (stomach ulcer or erosion) caused by provided treatment and the number of lesions caused by indomethacin (100%). This was determined to reflect the side effects induced by medicament. The sum of the area of all the ulcers in the body of each animal was calculated and served as an ulcerative index. Gastric lesion percentage was calculated in the following way: % of gastric lesion = (IUM/IUI) × 100 [formula] wherein IUM is the Medicament Ulcerative Index on test (mm^2) and IUI is the Ulcerative Index for assayed Indomethacin (mm^2).
ABC was calculated for each drug combination and for each of the components. On the basis of addition of individual pharmacological effects (Seegers et al., 1981) an ABC equivalent to the sum was expected. If the sum of the corresponding individual ABC was higher than the theoretical sum, the result was determined as enhancement; when similar to the theoretical sum it was determined to show additive antinociceptive effects. ABC was obtained through the trapezoidal rule (Rowland and Trozer, 1989). All the values for each treatment were average ± S.E.M., for six animals. ABC values for drug combinations were compared with the values which were expected by using the Student test. […] A P<0.05 was determined as statistically significant.

The test system of a further data set is rat arthritic pain model. The data set is described as follows: PIFIR model: antinociceptive activity after intraarticular uric acid (rat arthritic pain model). Also noted: antinociceptive efficiency (ABC): dose or concentration left out as unconfirmed. The format is in vivo, Wistar [CRl (WI) BR] female rats. On the procedure:
A rat arthritic pain model was determined for said purpose. Data were interpreted by using a Surface Synergic Interaction Analysis (ISS) and an Isobolographic Analysis to determine the interaction nature. ISS is calculated from the total antinociceptive effect produced by a combination after a substraction of an antinociceptive effect produced separately by the drug.
For this trial, Wistar [CRl (WI) BR] female rats weighing 180-200 g. were weighed. Feed was maintained 12 hours before the water ad libitum access experiments. All the experimental procedures followed the recommendations of the Committee for Research and Ethical Issues of the International Association for the Study of Pain (Covino et al., 1980) and Guidelines on Ethical Standards for Investigations of Experimental Pain in Animals (Zimmermann, 1983) and they were carried out according to a protocol approved by the local Animal Ethics Committee. Animal number in experiment was kept at a […] and animals were maintained in a weathered room and light control with a 12-hour light/darkness cycle.
Uric acid was suspended in mineral oil; Ketorolac trometamine, tramadol hydrochloride and indomethacin were dissolved in carboxymethyl cellulose and orally administered.
Antinociceptive activity was determined by using a PIFIR model which has been described in detail (López-Muñoz et al., 1993). Animals were anesthetized with chamber ether (Pyrex-glass dryer saturated with ether vapor). Nociception was induced through an intraarticular injection (ia) of 0.5 mL uric acid suspended in mineral oil in the right-hind leg knee joint. Suspension was prepared by mixing 3.0 g of uric acid with 10 mL of mineral oil in a glass mortar with pestle (Pyrex). Intraarticular injection was carried out through the patellar ligament using a 1 mL glass syringe (Beckton Dickinson LTA, Brazil) with a 5 mm 24-needle. Immediately after, an electrode was implanted in the plantar surface of each hind claw between the plantar pads. Rats were allowed to recover from anesthesia and then a stainless steel cylinder was attached which was rotated at 4 rpm, forcing to the rats to walk for 2 minute periods every 30 minutes during 6.5 hours. It was not necessary a training period since rats learned it from the first minute. Contact time between each implanted electrode in rat limb and cylinder was registered. After the uric acid injection, rats progressively developed damaged limb dysfunction. […] This time was considered as zero time for antinoceptive effect measures; these effects are measured every 30 minutes during the following 4 hours. This allowed determining the course of the nociceptive effects in the same animal. Antinociception was considered as a recovery of contact time. Data are expressed as a performance percentage index (IF%; that is, contact time of injected leg divided by contact time of left leg, control, multiplied per 100). For the purpose of this trial, it was unavoidable to induce nociception in experimentation animals. However, care was taken in preventing an unnecessary suffering. All the experiments were performed between 7:00 A.M. and 2:00 P.M.
At the end of the study the rats were sacrificed.
Study data, tables and figures are expressed as IF%. IF% vs. time curves were prepared for each treatment and the corresponding time course was obtained. Antinociception was estimated as a recovery of IF%. Accumulated antinociceptive effect during all the observation period (4 hours) was determined as the area under the curve (ABC) for time course to obtain the dose-response curve and for analyzing the total antinociceptive effect obtained for the analgesic agent whether alone and in combination.
ABC was calculated for each drug combination and for each of the components. On the basis of addition of individual pharmacological effects (Seegers et al., 1981) an ABC equivalent to the sum was expected. […]

For data set [1] the following is noted: cited from earlier work.
For data set [2] the following is noted: in vivo. On the procedure: Blood samples were taken up to 24 hours after medicament delivery.
In order to determine whether bioavailability is existent or not between both medicaments, a logarithmic transformation of data was carried out and they were analyzed by means of the statistical package WinNonlinTM.
Confidence ranges proposed by FDA for semilogarithmic data in determining bioequivalency of two products are from 80 to 125%.

For data set [3] the following is noted: ketorolac, cited from earlier work.
Where [4] appears, read: p.o., two administrations 2.5 hours apart, stomach examined at 5 hours, indomethacin 20 mg/kg, ketorolac 1 mg/kg, tramadol 17.8 mg/kg, combination as in title, six rats.

Where “and” joins values, the source holds several entries; their conditions need not be identical. Identical values can stand only once. Counter-ions that a name gives are not always drawn. Like-named read-outs stand apart in the source and are kept apart here.

`COc1ccc2c(c1)c(CC(=O)O)c(C)n2C(=O)c1ccc(Cl)cc1` [Indomethacin]: in the data set on stomach (setting [4]), the No. of erosions was found to be 30.0 ± 3.9 and the “Ulcers (sum of the area of all ulcers)” value was 51.6 ± 3.4 mm^2. Further, the “Gastric lesion ((Index of ulcers in drug tests / Index of ulcers in indomethacin tests) x 100)” value in the data set with stomach stood at 100%.

For `COc1cccc(C2(O)CCCCC2CN(C)C)c1` (centres unmarked) [Tramadol, Tramadol Hydrochloride], in the data set on stomach (rat, in vivo), the No. of erosions came out at 0, the “Ulcers (sum of the area of all ulcers)” value worked out at 0 mm^2 and the “ulcers or erosions (in words)” value was “did not cause ulcers or erosions”. Moreover, in the data set with rat arthritic pain model (rat, in vivo), the “Antinociceptive effects (ABC)” value worked out at 236.7 ± 11.0 au, the Emax is 17.1 ± 9.1%, the “antinociceptive activity (ABC)” value is 207.7 ± 24.7 au and the “effect on walking capacity of rats treated with vehicle” value is “did not affect the walking capacity”. Also, in the data set on rat arthritic pain model (rat, in vivo), the “side effects (sedation, elation, dizziness and effects on walking capacity)” value is given as 50 % of animals. Also, the DE50 in the data set on rat arthritic pain model (rat, in vivo, po) turned out to be 44.29 ± 0.06 mg/kg. For the same compound, in data set [1] (in vivo, po), the bioavailability is recorded as 79% and the “time to maximum plasma concentrations” value was 1.5 to 2 h.

Regarding `O=C(c1ccccc1)c1ccc2n1CCC2C(=O)O` (centres unmarked) [Ketorolac, Ketorolac trometamine], the “Ratio (%Ref), LnAUCINF” value in data set [2] (human) came out at 95.53 %Ref. For the same compound, the “Ratio (%Ref), Ln (Cmax)” value in data set [2] was found to be 72.78 %Ref. In addition, the “Ulcers (sum of the area of all ulcers)” value with stomach (setting [4]) was 13.7 ± 2.7 mm^2 and 13.7 ± 2.7^c mm^2. In the data set on stomach, the “Gastric lesion ((Index of ulcers in drug tests / Index of ulcers in indomethacin tests) x 100)” value came to 26.6%. Also, the Emax in the data set with rat arthritic pain model (IF% time course, ketorolac 0.32 mg/kg p.o. alone) is given as 33.7 ± 8.7%. For the same compound, the ED50 in the data set with rat arthritic pain model (Rattus norvegicus, po, dose causing 50% of maximum possible effect, linear regression of dose-response curve, ± S.E.M., read-out: DE50 (the source's name)) turned out to be 0.86 ± 0.1 mg/kg. The ABC in the data set on rat arthritic pain model (ketorolac 0.32 mg/kg p.o. alone, 4 hours) is 65.0 ± 9.6 au; with rat arthritic pain model (ketorolac 0.56 mg/kg p.o. alone, 4 hours), 98.7 ± 15.5 au; in the data set on rat arthritic pain model (ketorolac 1.78 mg/kg p.o. alone, 4 hours), 279.0 ± 15.5 au. The “antinociceptive effect (ABC)” value with rat arthritic pain model (ketorolac 3.16 mg/kg p.o., maximum used dose) worked out at 295.8 ± 14.9 au. Also, in the data set on rat arthritic pain model (ketorolac 0.18 -5.62 mg/kg, tramadol 3.16-56.23 mg/kg, no uric acid, data not shown), the “effect on walking capacity of rats treated with vehicle” value is “did not affect the walking capacity”. Further, the “antinociceptive efficiency (ABC)” value in the data set on rat arthritic pain model (ketorolac p.o., area under IF% vs time curve, 4 hours, mean ± S.E.M., six animals) came out at 295.8 ± 14.9 au. Further, the “dose removed by urine without any change” value in data set [1] (ketorolac, remainder excreted in feces) is given as “about 91%”. Besides, the “start of analgesic effect” value was 30 min in data set [3] (intramuscular administration) and 10 min in data set [3] (oral administration).

The record behind these values is EP2138174A1, “PHARMACEUTICAL COMPOSITION IN THE FORM OF A SUBLINGUAL TABLET CONSISTING OF A NON-STEROIDAL ANTI-INFLAMMATORY AGENT AND AN OPIATE ANALGESIC FOR PAIN MANAGEMENT” (priority 2007, dated 2008).
